Experimental data published in patent publication US12478643B2, “Compositions and methods for the prevention or treatment of rheumatoid arthritis” (Rhode Island Hospital, priority 2021, dated 2025).
pIC50: −log10 of the molar value.

Assays:
SHIP-1 = conditions: temporal inhibition of SHIP-1; cited from earlier work
mice = conditions: as seen in SHIP-1 KO mice; cited from earlier work
[1] = system: wild-type (WT) C57BL/6 mice; conditions: cited from earlier work
[2] = system: collagen-induced arthritis (CIA) in DBA/1 mice; experiment: Collagen-induced arthritis (CIA) intervention model, 3AC after second immunization; type: in vivo, mouse
SHIP1 = target: T1, SHIP1 (Homo sapiens, UniProt Q92835); conditions: read-out: IC50 SHIP-1; cited from earlier work
T1 sequence (Q92835 1-1189): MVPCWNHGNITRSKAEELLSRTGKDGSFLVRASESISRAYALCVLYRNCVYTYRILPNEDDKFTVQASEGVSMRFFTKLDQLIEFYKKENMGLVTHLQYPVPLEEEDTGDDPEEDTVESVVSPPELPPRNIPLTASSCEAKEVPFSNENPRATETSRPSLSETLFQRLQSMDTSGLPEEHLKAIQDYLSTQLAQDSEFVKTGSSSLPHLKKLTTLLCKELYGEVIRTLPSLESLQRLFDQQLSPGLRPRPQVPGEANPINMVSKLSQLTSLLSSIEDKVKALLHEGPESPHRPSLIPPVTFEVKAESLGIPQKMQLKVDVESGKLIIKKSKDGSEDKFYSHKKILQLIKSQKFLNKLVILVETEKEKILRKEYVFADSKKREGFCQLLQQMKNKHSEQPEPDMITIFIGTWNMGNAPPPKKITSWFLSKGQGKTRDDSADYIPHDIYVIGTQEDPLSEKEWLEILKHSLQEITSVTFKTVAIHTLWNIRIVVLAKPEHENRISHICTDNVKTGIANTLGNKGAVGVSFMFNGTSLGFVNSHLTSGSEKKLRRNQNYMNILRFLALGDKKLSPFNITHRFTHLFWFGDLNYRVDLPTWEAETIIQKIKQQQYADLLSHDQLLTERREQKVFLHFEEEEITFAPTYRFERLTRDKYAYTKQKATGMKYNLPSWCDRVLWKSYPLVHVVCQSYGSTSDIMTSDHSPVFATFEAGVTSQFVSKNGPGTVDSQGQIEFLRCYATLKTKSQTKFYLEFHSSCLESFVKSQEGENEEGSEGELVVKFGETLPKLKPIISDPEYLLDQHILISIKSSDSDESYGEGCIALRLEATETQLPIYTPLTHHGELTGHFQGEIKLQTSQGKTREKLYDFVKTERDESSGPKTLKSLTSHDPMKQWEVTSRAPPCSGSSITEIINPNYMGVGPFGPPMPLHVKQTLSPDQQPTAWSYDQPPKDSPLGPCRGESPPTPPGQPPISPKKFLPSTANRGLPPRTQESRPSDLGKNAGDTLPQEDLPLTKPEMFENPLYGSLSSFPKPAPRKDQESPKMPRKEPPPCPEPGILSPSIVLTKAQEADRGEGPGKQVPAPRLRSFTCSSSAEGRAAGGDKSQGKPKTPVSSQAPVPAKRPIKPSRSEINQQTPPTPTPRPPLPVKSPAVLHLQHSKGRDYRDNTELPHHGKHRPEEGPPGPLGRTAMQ

[3] = system: collagen-induced arthritis (CIA) in DBA/1 mice; experiment: Collagen-induced arthritis (CIA) prevention model, 3AC pre-treatment; type: in vivo, mouse
[4] = system: xenograft model of multiple myeloma; conditions: cited from earlier work
DBA/1 mice = experiment: 3AC i.p. daily for 7 days in DBA/1 mice: Western blot and flow cytometry; type: in vivo, mouse
Description: Mice. All animals were maintained in pathogen-free conditions and all animal procedures followed protocols approved by the Institutional Animal Care and Use Committee (IACUC) of Rhode Island Hospital. The SHIP-1 knockout (KO) mice (Inpp5d<tm1Dmt>/J, Stock #003534) on a mixed genetic background (129/C57BL/6) were purchased from the Jackson Laboratory, Bar Harbor, ME, and backcrossed with C57BL/6 mice (Stock #000664, the Jackson Laboratory) for 5 generations. Heterozygous (SHIP-1^+/−) mice were intercrossed to obtain homozygous progeny (SHIP-1^−/−). Wild-type (WT) littermates (SHIP-1^+/+) of same age as SHIP1 KO mice were used as controls. DBA/1J mice (Stock #000670) were also purchased from the Jackson Laboratory.
Chemicals and reagents. Specific SHIP-1 inhibitor 3AC was purchased from Echelon Biosciences (Salt Lake, UT) and suspended in 0.3% Klucel (Sigma-Aldrich, St. Louis, MO) solution. The 3AC suspension was stirred by sonication and sterile filtered before injection. The 0.3% Klucel solution was used as a vehicle control.
Immunoblotting. Splenocytes were isolated from C57BL/6 WT and SHIP1 KO mice, and DBA/1 mice with or without 3AC treatment. The cells were then lysed with RIPA buffer containing Halt™ Protease and Phosphatase Inhibitor Cocktail (Thermo Scientific, Rockford, IL). Total lysates (30 μg/sample) were loaded on an SDS-PAGE gel and transferred onto an Immuno-Blot PVDF membrane (Bio-Rad, Hercules, CA). The membranes were first blocked and then probed with antibodies in TBS (20 mM Tris and 150 mM NaCl) containing 0.1% Tween-20 and 5% skim milk. Antibodies against SHIP-1 (P1C1) (sc-8425) and β-Actin (2A3) were purchased from Santa Cruz Biotechnology (Dallas, TX). Blots were developed by using a goat anti-mouse IgG antibody conjugated IRDye 800CW and imaged with an Odyssey imager (LI-COR, Lincoln, NE).
Flow cytometry analysis. Peripheral blood (PB) samples were collected from the retro-orbital sinus of mice on the indicated days. Bone marrow (BM) of femurs and tibiae and spleens were isolated from sacrificed mice. Following treatment with red blood cell lysing buffer (Sigma-Aldrich) and filtration through a nylon mesh, peripheral blood mononuclear cells (PBMCs), splenocytes, and whole BM cells were isolated and suspended in phosphate-buffered saline (PBS) containing 2% FBS. These cells were labeled with fluorophore-conjugated antibodies and subjected to flow cytometry. All antibodies used in flow cytometry were purchased from BioLegend (San Diego, CA): Alexa Fluor 488 anti-mouse CD11b, APC anti-mouse Gr-1, PE anti-mouse CD3e, APC/Cy7 anti-mouse B220, Alexa Flour 488 anti-mouse CD4, and APC anti-mouse CD25. 4′,6-Diamidino-2-Phenylindole (DAPI) was used to exclude DAPI+ dead cells during flow cytometry analysis. Data were acquired using LSR II flow cytometer (BD Biosciences) and analyzed with FlowJo software (FlowJo, Ashland, OR).
Statistical analysis. Data are shown as the mean values±standard error of the mean (SEM). The significance of difference was calculated with unpaired two-tailed Student's t-test or one-way ANOVA when comparing more than 2 groups by using GraphPad Prism (GraphPad Software, Inc., La Jolla, CA). P values less than 0.05 were considered to be statistically significant.

[5] = system: CIA in C57BL/6 WT and SHIP1 KO mice; experiment: CIA in C57BL/6 WT and SHIP1 KO mice; type: in vivo, mouse
[6] = system: hematopoietic cancer cells; conditions: in vitro; cited from earlier work
[7] = 3AC daily for 7 days starting on day 27
[8] = 3AC daily for 7 days prior to CIA induction, vs vehicle
[9] = i.p. daily for 7 days, DBA/1 mice

CC(C)CCC[C@@H](C)[C@H]1CC[C@H]2[C@@H]3CC[C@H]4C[C@H](N)CC[C@]4(C)[C@H]3CC[C@]12C [Compound 3AC, 3α-Aminocholestane]
SHIP-1 protein stability in cells (SHIP-1): reduces protein stability and induces protein degradation
pulmonary myeloid infiltration (mice): did not cause
myeloid immunoregulatory cell compartment ([1]; WT C57BL/6 mice): significantly expand
ability of the immune system to prime allogeneic T cell responses ([1]; mouse models): impairs
CIA incidence [2, 7]: significantly reduced
CIA severity (clinical score) [2, 7]: significantly reduced
number of total T cell in peripheral blood ([2]; day 34): Significantly and transiently decreasing
number of Tregs in peripheral blood ([2]; mouse, in vivo): unchanged
number of Tregs in the spleen ([2]; onset and endpoint of the experiment, vs control): Comparable number
number of MDSCs in peripheral blood ([2]; vs vehicle-treated mice, day 34): Significantly but transiently increasing
pIC50 (SHIP1): ~5.60
CIA onset [3, 8]: significant delay
severity of CIA (clinical score) [3, 8]: significant reduction
misalignment, bone erosion and destruction of joint cartilage (radiographic assessment) ([3]; X-ray at day 63): nearly absent
time at which swelling and redness of limbs started to appear ([3]; after first immunization, 3AC pre-treated DBA/1 mice): 30 to 40 days
swollen and reddish front paws (photographic assessment) ([3]; day 42): much less so
Tregs in the spleen ([3]; following 3AC injection): higher number
CD3+ T cells in peripheral blood ([3]; till day 21, transient): decreased
MDSCs in peripheral blood ([3]; till day 21, transient): significantly increased
bone erosion (Toluidine Blue) ([3]; wrist joint of front paws): reduced bone erosion
cartilage damage (Safranin O) ([3]; wrist joint of front paws): reduced cartilage damage
inflammatory cell infiltration in the arthritic joint (H&E) ([3]; wrist joint of front paws): reduced inflammatory cell infiltration
inflammation of peripheral tissues [4]: without association with severe inflammation of peripheral tissues
tumor cell growth [4]: reduces tumor cell growth
CD3+ T cells in PB (DBA/1 mice; [9]): significant reduction
CD11b+Gr-1+ MDSCs in BM (DBA/1 mice; [9]): increase
CD11b+Gr-1+ MDSCs in peripheral blood (PB) (DBA/1 mice; [9]): increase
CD11b+Gr-1+ MDSCs in spleen (SP) (DBA/1 mice; [9]): increase
SHIP-1 protein depletion in splenocytes (Western blot) (DBA/1 mice; [9]): comparable to that in SHIP1 KO mice
Tregs in SP (DBA/1 mice; vs vehicle control mice): significantly elevated level
frequency of CD4+CD25+ Tregs in PB (DBA/1 mice; vs vehicle treated control mice): remained unchanged
incidence and severity of CIA in SHIP1 KO mice ([5]; SHIP1 KO mice treated with 3AC (data not shown)): did not improve
CIA development in C57BL/6 WT mice ([5]; WT mice with 3AC pre-treatment): did not develop CIA
apoptosis of hematopoietic cancer cells [6]: increases apoptosis
